# Test results from patent US20150157645A1, “COMBINATION OF A 17-ALPHA-HYDROXYLASE (C17,20-LYASE) INHIBITOR AND A SPECIFIC PI-3K INHIBITOR FOR TREATING A TUMOR DISEASE” (priority 2012, published 2015).
# Marks after values point to notes of the source that are not given here.
# Assays:
# [1] = test system: human prostate VCap xenograft; test: human prostate VCap xenograft model in SCID mice (studies MIS-32S-12 and MIS-59FVA-12); conditions: for ΔTumor volume (mm^3): mean ± SEM
# Experimental: (§1) Recently, in vivo anti-tumor efficacy of 1-(2-Chloro-pyridin-4-yl)-3-(4-methyl-pyridin-3-yl)-imidazolidin-2-one was evaluated alone and in combination with COMPOUND C or its hydrochloride salt (a pan PI3K inhibitor) in two human prostate cancer xenograft models, VCap and LnCap, established in SCID mice. The VCap tumors which, express PTEN and over-express wild type AR, were established in chemically-castrated mice. The LnCap tumors which, express mutant AR (T877A) and are PTEN null, were initially established in non-castrated animals which were chemically-castrated at the time of treatment.
# [2] = test system: human prostate LNCap xenograft; test: human prostate LnCap xenograft model in SCID mice (study MIS-43P-12); assay type: in vivo; design: Average / Delta avg: unit not given here; conditions: D 300 mg/kg bid, C 30 mg/kg qd; for anti-tumor response (in words): LnCap, single agent, AA 100 mg/kg bid; for T/C [%] / Delta avg / Average: po, C/D 30/300 qd/bid; for Delta avg: change of average tumor volume
# Experimental: as §1
# [3] = MIS-32S-12, Day 14, p.o., D 300 mg/kg bid, AA 100 mg/kg bid, C 30 mg/kg qd, C + D 30 qd + 300 bid
# [4] = MIS-32S-12, Day 35, p.o., D 300 mg/kg bid, AA 100 mg/kg bid, C 30 mg/kg qd, C + D 30 qd + 300 bid
# [5] = MIS-32S-12, Day 35, p.o., D 300 mg/kg bid, AA 100 mg/kg bid, C 30 mg/kg qd, C + D 30 mg/kg qd + 300 mg/kg bid
# [6] = MIS-59FVA-12, Day 14, p.o., D 300 mg/kg bid, C 30 mg/kg qd, C + D 30 qd + 300 bid (so in the source)
# [7] = MIS-59FVA-12, Day 14, p.o., D 300 mg/kg bid, C 30 mg/kg qd (so in the source)
# [8] = MIS-59FVA-12, Day 23, p.o., D 300 mg/kg bid, C 30 mg/kg qd, C + D 30 qd + 300 bid (so in the source)
# [9] = MIS-59FVA-12, Day 23, p.o., D 300 mg/kg bid, C 30 mg/kg qd (so in the source)
# [10] = MIS-43P-12, day 0 of treatment, E 100 mg/kg bid
# [11] = MIS-43P-12, day 4 of treatment, E 100 mg/kg bid
# [12] = MIS-43P-12, day 11 of treatment
# [13] = MIS-43P-12, day 14 of treatment, E 100 mg/kg bid
# [14] = MIS-43P-12, day 18 of treatment, E 100 mg/kg bid
# [15] = MIS-43P-12, day 0, E 100 mg/kg bid
# [16] = MIS-43P-12, day 4, E 100 mg/kg bid
# [17] = MIS-43P-12, day 14, E 100 mg/kg bid
# [18] = MIS-43P-12, day 18, E 100 mg/kg bid
# [19] = tumor volume (FIG. 3a), MIS-43P-12, day 0 of treatment, E 100 mg/kg bid
# [20] = tumor volume, MIS-43P-12, day 4 of treatment, E 100 mg/kg bid
# [21] = tumor volume, MIS-43P-12, day 7 of treatment
# [22] = tumor volume, MIS-43P-12, day 11 of treatment
# [23] = tumor volume, MIS-43P-12, day 14 of treatment, E 100 mg/kg bid
# [24] = tumor volume, MIS-43P-12, day 18 of treatment, E 100 mg/kg bid
structure (smiles),measurement,setting,value
"Cc1ccncc1N1CCN(c2ccnc(Cl)c2)C1=O [Compound D, 1-(2-Chloro-pyridin-4-yl)-3-(4-methyl-pyridin-3-yl)-imidazolidin-2-one]",ΔTumor volume (mm^3),[1]; [3],35.6 ± 10.5 mm^3
same,T/C [%],"[1]; MIS-32S-12, Day 14, p.o., D 300 mg/kg bid, AA 100 mg/kg bid, C 30 mg/kg qd, C + D 30 mg/kg qd + 300 mg/kg bid",27.2*^$ %
same,ΔTumor volume (mm^3),[1]; [4],303.9 ± 57.3 mm^3
same,T/C [%],[1]; [5],65.2*^;$;# %
same,ΔTumor volume (mm^3),[1]; [6],36.3 ± 17.0 mm^3
same,T/C [%],[1]; [7],40.3* %
same,ΔTumor volume (mm^3),[1]; [8],79.8 ± 20.1 mm^3
same,T/C [%],[1]; [9],38.7*^;# %
same,anti-tumor response (in words),"[1]; two separate VCap experiments, single agent, D 300 mg/kg bid, AA 100 mg/kg bid","either slight tumor regression or tumor stasis initially, followed by tumor growth delay"
same,anti-tumor response (in words),[2],marginal tumor growth delay
same,T/C [%],[2]; [10],100%
same,T/C [%],[2]; [11],82%
same,T/C [%],"[2]; MIS-43P-12, day 7 of treatment",60%
same,T/C [%],[2]; [12],85%
same,T/C [%],[2]; [13],57%
same,T/C [%],[2]; [14],67%
same,Delta avg,[2]; [15],0
same,Delta avg,[2]; [16],43
same,Delta avg,"[2]; MIS-43P-12, day 7",73
same,Delta avg,"[2]; MIS-43P-12, day 11",197
same,Delta avg,[2]; [17],200
same,Delta avg,[2]; [18],317
same,Average,[2]; [19],174
same,Average,[2]; [20],217
same,Average,[2]; [21],248
same,Average,[2]; [22],372
same,Average,[2]; [23],375
same,Average,[2]; [24],491
"Nc1cc(C(F)(F)F)c(-c2cc(N3CCOCC3)nc(N3CCOCC3)n2)cn1 [Compound C, 5-(2,6-di-morpholin-4-yl-pyrimidin-4-yl)-4-trifluoromethyl-pyridin-2-ylamine]",ΔTumor volume (mm^3),[1]; [3],−18.9 ± 6.3 mm^3
same,Regression (printed in T/C column),"[1]; MIS-32S-12, Day 14, p.o., C 30 mg/kg qd, C + D 30 mg/kg qd + 300 mg/kg bid",13.8%*
same,Survival (alive/total),[1]; [3],7/7
same,ΔTumor volume (mm^3),[1]; [4],23.3 ± 21.6 mm^3
same,T/C [%],[1]; [5],5.0*^;$ %
same,Survival (alive/total),[1]; [4],7/7
same,ΔTumor volume (mm^3),[1]; [6],3.6 ± 7.6 mm^3
same,T/C [%],[1]; [7],4.0%*
same,Survival (alive/total),[1]; [6],7/7
same,ΔTumor volume (mm^3),[1]; [8],25.6 ± 16.4 mm^3
same,T/C [%],[1]; [9],12.4* %
same,Survival (alive/total),[1]; [8],7/7
same,anti-tumor response (in words),"[1]; VCap, single agent 20 mg/kg qd",tumor growth delay
same,anti-tumor response (in words),"[1]; VCap, single agent 30 mg/kg qd",tumor regression
same,anti-tumor response (in words),[2],marginal tumor growth delay
same,T/C [%],[2]; [10],100%
same,T/C [%],[2]; [11],56%
same,T/C [%],"[2]; MIS-43P-12, day 7 of treatment",71%
same,T/C [%],[2]; [12],86%
same,T/C [%],[2]; [13],75%
same,T/C [%],[2]; [14],79%
same,Delta avg,[2]; [15],0
same,Delta avg,[2]; [16],29
same,Delta avg,"[2]; MIS-43P-12, day 7",88
same,Delta avg,"[2]; MIS-43P-12, day 11",198
same,Delta avg,[2]; [17],261
same,Delta avg,[2]; [18],375
same,Average,[2]; [19],170
same,Average,[2]; [20],199
same,Average,[2]; [21],258
same,Average,[2]; [22],369
same,Average,[2]; [23],432
same,Average,[2]; [24],546
